Measured values published in patent publication US7902223B2, “Phenyl derivatives as factor XA inhibitors” (Merck Patent GmbH, priority 2001, dated 2011).

Legend:
FXa = FXa (Homo sapiens, UniProt P00742); assay: Factor Xa inhibition (FXa-IC50); format: biochemical
Text: The inhibition of factor Xa by the compounds according to the invention and the measurement of the anticoagulant and antithrombotic activity can be determined by conventional in-vitro or in-vivo methods. A suitable method is described, for example, by J. Hauptmann et al. in Thrombosis and Haemostasis 1990, 63, 220-223.
The inhibition of factor Xa can be measured, for example, by the method of T. Hara et al. in Thromb. Haemostas. 1994, 71, 314-319.

TF/FVIIa = TF/FVIIa (Homo sapiens, UniProt P08709); assay: TF/factor VIIa inhibition (TF/FVIIa-IC50); format: biochemical
Chain of TF/FVIIa (P08709 213-466 limits assumed): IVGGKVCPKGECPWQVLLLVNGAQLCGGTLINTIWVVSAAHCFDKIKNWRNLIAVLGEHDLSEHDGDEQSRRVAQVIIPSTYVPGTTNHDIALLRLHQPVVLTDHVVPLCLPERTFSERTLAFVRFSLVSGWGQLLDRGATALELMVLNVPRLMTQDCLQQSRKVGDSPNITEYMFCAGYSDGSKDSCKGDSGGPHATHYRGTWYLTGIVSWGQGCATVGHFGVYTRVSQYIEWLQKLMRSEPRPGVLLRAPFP
Chain of TF/FVIIa (P08709 61-212 limits assumed): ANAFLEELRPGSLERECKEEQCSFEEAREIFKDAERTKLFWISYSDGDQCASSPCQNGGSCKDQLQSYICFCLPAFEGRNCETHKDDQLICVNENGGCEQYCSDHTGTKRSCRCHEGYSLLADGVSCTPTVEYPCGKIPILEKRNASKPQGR
Chain of TF/FVIIa (P13726 33-295 partner): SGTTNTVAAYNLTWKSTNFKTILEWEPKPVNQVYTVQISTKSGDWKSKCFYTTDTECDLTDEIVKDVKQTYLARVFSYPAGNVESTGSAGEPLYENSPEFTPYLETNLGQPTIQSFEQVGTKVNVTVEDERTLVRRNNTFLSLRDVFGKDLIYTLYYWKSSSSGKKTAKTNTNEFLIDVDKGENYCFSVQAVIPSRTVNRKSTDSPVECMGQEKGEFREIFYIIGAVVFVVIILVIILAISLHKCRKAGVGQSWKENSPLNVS
Text: The inhibition of factor VIIa by the compounds according to the invention and the measurement of the anticoagulant and antithrombotic activity can be determined by conventional in-vitro or in-vivo methods. A conventional method for the measurement of the inhibition of factor VIIa is described, for example, by H. F. Ronning et al. in Thrombosis Research 1996, 84, 73-81.

Chain of FXa (P00742 235-488 limits assumed): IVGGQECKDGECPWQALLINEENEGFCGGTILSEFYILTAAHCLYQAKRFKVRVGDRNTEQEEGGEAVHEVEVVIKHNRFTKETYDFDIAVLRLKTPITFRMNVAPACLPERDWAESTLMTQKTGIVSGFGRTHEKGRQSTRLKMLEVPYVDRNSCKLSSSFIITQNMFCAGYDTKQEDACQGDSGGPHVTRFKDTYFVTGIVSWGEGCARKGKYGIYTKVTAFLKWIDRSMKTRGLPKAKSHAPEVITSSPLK
Chain of FXa (P00742 41-179 limits assumed): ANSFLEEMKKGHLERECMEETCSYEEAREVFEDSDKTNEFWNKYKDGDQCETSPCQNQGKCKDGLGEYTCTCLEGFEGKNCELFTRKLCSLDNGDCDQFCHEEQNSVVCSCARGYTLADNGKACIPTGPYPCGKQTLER

## CCCC(Oc1ccc2ccnc(N)c2c1)C(=O)Nc1ccc(N2CCCCC2=O)cc1 (stereo not shown) [AA, N-[4-(2-Oxopiperidin-1-yl)phenyl]-2-(1-aminoisoquinolin-7-yloxy)-pentanamide]
FXa
  IC50: 350 nM
TF/FVIIa
  IC50: 220 nM

## Nc1nccc2ccc(OC(C(=O)Nc3ccc(N4CCCCC4=O)cc3)c3ccccc3)cc12 (stereo not shown) [AB, N-[4-(2-oxopiperidin-1-yl)phenyl]-2-(1-aminoisoquinolin-7-yloxy)-2-phenylacetamide]
FXa
  IC50: 350 nM
TF/FVIIa
  IC50: 200 nM
